Test results: PMC8698721, “Exploration of the Structure–Function Relationships of a Novel Frog Skin Secretion-Derived Bioactive Peptide, t-DPH1, through Use of Rational Design, Cationicity Enhancement and In Vitro Studies” (Antibiotics, 2021)
In brackets after ≈: the same amount, converted by molar mass. Like-named read-outs stand apart in the source and are kept apart here. Where a SMILES comes first, the peptide text is derived from it.

Legend:
S. aureus (ATCC 6538) = format: cell-based, Staphylococcus aureus; conditions: ATCC 6538, 24 h
Experimental: (§1) To assess the antimicrobial activity of t-DPH1 and its designed analogues, MIC and MBC assays were conducted. Seven microorganism strains were used in the assay: Gram-positive bacteria S. aureus (ATCC 6538), E. faecalis (NCTC 12697) and MRSA (NCTC 12493); Gram-negative bacteria E. coli (ATCC 8739), P. aeruginosa (ATCC 9027) and K. pneumoniae (ATCC 43816); yeast, C. albicans (ATCC 10231).
(§2) For MIC assay, the microorganisms were initially incubated in Mueller-Hinton broth (MHB) (for bacteria) or yeast extract peptone dextrose broth (YPD-B) (for yeast) overnight and sub-cultured to achieve their respective logarithmic growth phases (5 × 10^5 CFU/mL). Then, 99 μL of each microorganism and 1 μL of the tested peptide solution were incubated in a 96-well plate. The final on-plate peptide concentrations were from 1 to 512 μM. Except for the peptide group, four other groups were set when conducting this experiment, including a negative control group (PBS), a vehicle control group (1% DMSO), a positive control group (bacteria: 20 μg/mL norfloxacin; yeast: amphotericin B) and a blank control group (MHB or YPD-B with no microorganism culture). Thus, the MIC value represents the lowest concentration of peptides at which no visible growth of the microorganism after 24 h incubation. For the MBC assay, 10 μL of the medium from each clear well was inoculated onto a Mueller–Hinton agar (MHA) (for bacteria) or yeast extract peptone dextrose agar (YPD-A) (for yeast) plate and incubated for 24 h for measurement MBC values.

[1] = system: Enterococcus faecalis (E. faecalis) (NCTC 12697); format: cell-based; conditions: NCTC 12697, 24 h
Experimental: as §1, §2

[2] = system: Methicillin-resistant Staphylococcus aureus (MRSA) (NCTC 12493); format: cell-based; conditions: NCTC 12493, 24 h
Experimental: as §1, §2

E. coli (ATCC 8739) = format: cell-based, Escherichia coli; conditions: ATCC 8739, 24 h
Experimental: as §1, §2

[3] = system: K. pneumoniae (ATCC 43816); format: cell-based, Klebsiella pneumoniae; conditions: ATCC 43816, 24 h
Experimental: as §1, §2

[4] = system: P. aeruginosa (ATCC 9027); format: cell-based, Pseudomonas aeruginosa; conditions: ATCC 9027, 24 h
Experimental: as §1, §2

C. albicans (ATCC 10231) = format: cell-based, Candida albicans; conditions: ATCC 10231, 24 h
Experimental: as §1, §2

[5] = system: HMEC-1 (human microvascular endothelial cell line); format: cell-based; conditions: 24 h
Experimental: (§3) The MTT assay was conducted to verify the proliferation inhibitory effect of t-DPH1 and its analogues. Human cancer cell lines (NCI-H838 (ATCC® CRL-5844, human non-small cell lung cancer)), (NCI-H157(ATCC® CRL-5802, human non-small cell lung cancer cell line)), (U251MG (ECACC 09063001, human neuronal glioblastoma cancer cell line)), (PC-3 (ATCC® CRL-1435TM, human prostate carcinoma cancer cell line)) and normal human cell lines (HMEC-1(ATCC®-CRL-3243, human microvascular endothelial cell line)) and (HaCaT (ATCC®-PCS-200-011, human keratinocyte cell)) were purchased from the American Type Culture Collection (ATCC, Manassas, VA, USA) and the European Collection of Cell Cultures (ECACC, Sallisbury, UK) for this assay. For the MTT assay, 8000 cells/per well were seeded in the 96-well plate for 24 h. Subsequently, experiment groups were dosed with fresh serum-free medium containing different concentrations of peptides (100 μM to 10 nM) in 3 replicates. Negative control groups and positive control groups were dosed with the fresh serum-free medium containing equal amounts of PBS, and 0.1% (w/v) Triton X-100, respectively. Then the 96-well plate was incubated at 37 °C with 5% CO2 for 24 h. After, ten microliters of MTT solution (5 mg/mL) (Sigma-Aldrich UK Ltd., Gillingham, UK) were added to each well and incubated in a dark environment for two hours. Then, the solution in each well was removed and 100 μL of DMSO were added and then the plate was shaken for 10 min on a shaking incubator before detecting the OD value by use of a Synergy HT plate reader (BioTek, Minneapolis, MN, USA) at λ = 570 nm.

[6] = system: HaCaT (human keratinocyte cell); format: cell-based; conditions: 24 h
Experimental: as §3

[7] = system: NCI-H157 (human non-small cell lung cancer cell line); format: cell-based; conditions: 24 h
Experimental: as §3

[8] = system: NCI-H838 (human non-small cell lung cancer); format: cell-based; conditions: 24 h
Experimental: as §3

[9] = system: PC-3 (human prostate carcinoma cancer cell line); format: cell-based; conditions: 24 h
Experimental: as §3

[10] = system: U251MG (human neuronal glioblastoma cancer cell line); format: cell-based; conditions: 24 h
Experimental: as §3

horse red blood cells = format: cell-based
Experimental: The haemolysis assay was performed by mixing 2% (v/v) fresh defibrinated horse blood (TCS Biosciences Ltd., Buckingham, UK) with peptides in different concentrations. Before the test, horse blood was rinsed with PBS three to four times until the supernatant was clear. Next, peptide solutions (from 100 μM to 1 nM) were incubated with the suspension of red blood cells at 37 °C for two hours. The blood cells treated with 1% Triton-X 100 were used as the positive control, and the blood cells treated with PBS were used as the negative control. After incubation, 100 μL of the supernatant from each sample were transferred to a new 96-well plate, and the OD value of each well was measured with a Synergy HT plate reader (BioTek, Minneapolis, MN, USA) with the absorbance set to 570 nm.

Row | SMILES | MBC (S. aureus (ATCC 6538)) [µM] | MIC (S. aureus (ATCC 6538)) [µM] | MBC [1] [µM] | MIC [1] [µM] | MBC [2] [µM] | MIC [2] [µM] | MBC (E. coli (ATCC 8739)) [µM] | MIC (E. coli (ATCC 8739)) [µM] | MBC [3] [µM] | MIC [3] [µM] | MBC [4] [µM] | MIC [4] [µM] | MBC (C. albicans (ATCC 10231)) [µM] | MIC (C. albicans (ATCC 10231)) [µM] | IC50 against HMEC-1 [5] [µM] | IC50 against HaCaT [6] [µM] | IC50 [7] [µM] | IC50 [8] [µM] | IC50 [9] [µM] | IC50 [10] [µM] | other results
1 | CC[C@H](C)[C@H](NC(=O)[C@H](CCCCN)NC(=O)[C@H](CCCCN)NC(=O)[C@H](Cc1c[nH]c2ccccc12)NC(=O)[C@H](CC(C)C)NC(=O)CN)C(=O)N[C@@H](CCCCN)C(=O)N[C@@H](CC(N)=O)C(=O)N[C@H](C(=O)N[C@@H](C)C(=O)N[C@@H](CCCCN)C(=O)N[C@@H](C)C(=O)N[C@@H](C)C(=O)NCC(=O)N[C@@H](CCCCN)C(=O)N[C@@H](C)C(=O)N[C@@H](C)C(=O)N[C@@H](CC(C)C)C(=O)NCC(=O)N[C@@H](C)C(=O)N[C@@H](CC(C)C)C(N)=O)C(C)C [t-DPH1-5K] (H-GLWKKIKNVAKAAGKAALGAL-NH2) | 2 (≈ 4.22 µg/mL) | 2 (≈ 4.22 µg/mL) | 16 (≈ 33.7 µg/mL) | 8 (≈ 16.9 µg/mL) | 4 (≈ 8.43 µg/mL) | 2 (≈ 4.22 µg/mL) | 4 (≈ 8.43 µg/mL) | 2 (≈ 4.22 µg/mL) | 4 (≈ 8.43 µg/mL) | 2 (≈ 4.22 µg/mL) | 8 (≈ 16.9 µg/mL) | 4 (≈ 8.43 µg/mL) | 512 (≈ 1080 µg/mL) | 256 (≈ 540 µg/mL) | 3.897 | 3.332 | 1.55 | 1.8 | 2.6 | 2.68 | haemolysis (horse red blood cells; 10 µM): ~40%; HC50 (horse red blood cells; red cells of horse): 19.39 µM
2 | CC[C@H](C)[C@H](NC(=O)[C@H](CCCCN)NC(=O)[C@H](CCCCN)NC(=O)[C@H](Cc1c[nH]c2ccccc12)NC(=O)[C@H](CC(C)C)NC(=O)[C@@H](N)Cc1c[nH]c2ccccc12)C(=O)N[C@@H](CCCCN)C(=O)N[C@@H](CC(N)=O)C(=O)N[C@H](C(=O)N[C@@H](C)C(=O)N[C@@H](CCCCN)C(=O)N[C@@H](C)C(=O)N[C@@H](C)C(=O)NCC(=O)N[C@@H](CCCCN)C(=O)N[C@@H](C)C(=O)N[C@@H](C)C(=O)N[C@@H](CCCCN)C(=O)NCC(=O)N[C@@H](C)C(=O)N[C@@H](CC(C)C)C(N)=O)C(C)C [t-DPH1-6KW] (H-WLWKKIKNVAKAAGKAAKGAL-NH2) | 128 (≈ 288 µg/mL) | 128 (≈ 288 µg/mL) | > 512 | 512 (≈ 1150 µg/mL) | 256 (≈ 576 µg/mL) | 128 (≈ 288 µg/mL) | 4 (≈ 9.01 µg/mL) | 2 (≈ 4.5 µg/mL) | 64 (≈ 144 µg/mL) | 64 (≈ 144 µg/mL) | 128 (≈ 288 µg/mL) | 64 (≈ 144 µg/mL) | > 512 | 512 (≈ 1150 µg/mL) | 293.2 | 119.3 | 427 | 181 | 118 |  | HC50 (horse red blood cells): 2094 µM
3 | CC[C@H](C)[C@H](NC(=O)[C@H](CCCCN)NC(=O)[C@H](CCCCN)NC(=O)[C@H](Cc1c[nH]c2ccccc12)NC(=O)[C@H](CC(C)C)NC(=O)CN)C(=O)N[C@@H](CCCCN)C(=O)N[C@@H](CC(N)=O)C(=O)N[C@H](C(=O)N[C@@H](C)C(=O)N[C@@H](CCCCN)C(=O)N[C@@H](C)C(=O)N[C@@H](C)C(=O)NCC(=O)N[C@@H](CCCCN)C(=O)N[C@@H](C)C(=O)N[C@@H](C)C(=O)N[C@@H](CCCCN)C(=O)NCC(=O)N[C@@H](C)C(=O)N[C@@H](CC(C)C)C(N)=O)C(C)C [t-DPH1-6K] (H-GLWKKIKNVAKAAGKAAKGAL-NH2) | 8 (≈ 17 µg/mL) | 4 (≈ 8.49 µg/mL) | 512 (≈ 1090 µg/mL) | 256 (≈ 543 µg/mL) | 64 (≈ 136 µg/mL) | 32 (≈ 67.9 µg/mL) | 4 (≈ 8.49 µg/mL) | 2 (≈ 4.25 µg/mL) | 8 (≈ 17 µg/mL) | 4 (≈ 8.49 µg/mL) | 16 (≈ 34 µg/mL) | 8 (≈ 17 µg/mL) | 128 (≈ 272 µg/mL) | 64 (≈ 136 µg/mL) | 340.2 | 151.4 | 88.3 | 186 | 55.6 | 594 | HC50 (horse red blood cells; red cells of horse): 834.6 µM
4 | CC[C@H](C)[C@H](NC(=O)[C@H](CCCCN)NC(=O)[C@H](CCCCN)NC(=O)[C@H](Cc1c[nH]c2ccccc12)NC(=O)[C@H](CC(C)C)NC(=O)CN)C(=O)N[C@@H](CCCCN)C(=O)N[C@@H](CC(N)=O)C(=O)N[C@H](C(=O)N[C@@H](C)C(=O)N[C@@H](C)C(=O)N[C@@H](C)C(=O)N[C@@H](C)C(=O)NCC(=O)N[C@@H](CCCCN)C(=O)N[C@@H](C)C(=O)N[C@@H](C)C(=O)N[C@@H](CC(C)C)C(=O)NCC(=O)N[C@@H](C)C(=O)N[C@@H](CC(C)C)C(N)=O)C(C)C [t-DPH1-K4] (H-GLWKKIKNVAAAAGKAALGAL-NH2) | 4 (≈ 8.2 µg/mL) | 2 (≈ 4.1 µg/mL) | 32 (≈ 65.6 µg/mL) | 32 (≈ 65.6 µg/mL) | 4 (≈ 8.2 µg/mL) | 2 (≈ 4.1 µg/mL) | 2 (≈ 4.1 µg/mL) | 1 (≈ 2.05 µg/mL) | 4 (≈ 8.2 µg/mL) | 2 (≈ 4.1 µg/mL) | 16 (≈ 32.8 µg/mL) | 8 (≈ 16.4 µg/mL) | 64 (≈ 131 µg/mL) | 32 (≈ 65.6 µg/mL) | 46.02 | 63.37 | 6.14 | 10.1 | 19 | 32.2 | HC50 (horse red blood cells; red cells of horse): 444.8 µM
